# Source: patent publication EP1561465A2, “Methods of use of fluoroquinolone compounds against bacteria” (LG Life Sciences, Ltd., priority 1999, dated 2001)
# Where two headings read alike, the source gives them in different places.
# Tests used:
# Assay type in all cases: cell-based
# Enterococcus faecium [1] = assay: MIC by agar macrodilution (NCCLS), 373 Gram positive isolates, Athens 1998
# Campylobacter jejuni = assay: MIC by agar dilution (NCCLS M7-A4), 5% sheep blood, microaerophilic 48 h; settings: Campylobacter jejuni (n=91)
# Shigella spp. = assay: MIC by agar dilution (NCCLS M7-A4), 288 enteropathogenic isolates, eight quinolones; settings: Shigella spp. (n = 21)
# Yersinia enterocolitica = assay: MIC by agar dilution (NCCLS M7-A4), 288 enteropathogenic isolates, gemifloxacin and 15 other antimicrobials; settings: Yersinia enterocolitica N= 22
# Enterococcus faecium [2] = assay: MIC by NCCLS broth microdilution, 1100 Japanese clinical isolates 1997-1998; settings: for MIC: Enterococcus faecium
# Moraxella catarrhalis [3] = assay: MIC by NCCLS reference broth microdilution, 450 respiratory tract pathogens
# Moraxella catarrhalis [4] = assay: MIC by two-fold serial agar dilution, Sensitivity Disk agar-N (Kitasato isolates); settings: Moraxella catarrhalis (22)
# Citrobacter freundii = assay: MIC by NCCLS broth microdilution, 1100 Japanese clinical isolates 1997-1998
# Morganella morganii = assay: as above
# Enterobacter cloacae = assay: as above; settings: Enterobacter cloacae (n=40)
# Enterococcus faecalis = assay: as above; settings: for MIC50 / MIC90: Enterococcus faecalis; for MIC90: read-out: MIC90
# Moraxella catarrhalis [5] = assay: MIC by agar dilution (NCCLS), 411 isolates Buenos Aires 1998-99; settings: Moraxella catarrhalis (n = 59)
# [6] = 24 h, read-out: MIC (mg/L) Range
# [7] = Enterococcus faecium (vanA) vancomycin resistant, strain TMS1
# [8] = Enterococcus faecium (vanA) vancomycin resistant, strain TMS2
# [9] = Enterococcus faecium (vanA) vancomycin resistant, strain TMS3
# [10] = Enterococcus faecium (vanA) vancomycin resistant, strain TMS4
# [11] = Enterococcus faecium (vanA) vancomycin resistant, strain TMS5
# [12] = Enterococcus laecium (van B) vancomycin resistant, strain TMS6
# [13] = Enterococcus laecium (van B) vancomycin resistant, strain TMS7
# [14] = Morganella morganii (n=40), read-out: MIC50
# [15] = Enterococcus faecalis ciprofloxacin resistant (n=15)
# [16] = Enterococcus faecalis ciprofloxacin susceptible (n=24)
# [17] = Morganella morganii (n=40), read-out: MIC90
compound,measurement,setting,value
"Cc1c(F)c(N2CCNC(C)C2)cc2c1c(=O)c(C(=O)O)cn2C1CC1 (stereo not shown) [Grepafloxacin, grepafloxacin]",MIC distribution (µg/ml) 0.03,Enterococcus faecium [1],0
same,MIC distribution (µg/ml) 0.06,Enterococcus faecium [1],0
same,MIC distribution (µg/ml) 0.125,Enterococcus faecium [1],0
same,MIC distribution (µg/ml) 0.25,Enterococcus faecium [1],2
same,MIC distribution (µg/ml) 0.5,Enterococcus faecium [1],4
same,MIC distribution (µg/ml) 1,Enterococcus faecium [1],3
same,MIC distribution (µg/ml) 2,Enterococcus faecium [1],0
same,MIC distribution (µg/ml) 4,Enterococcus faecium [1],0
same,MIC distribution (µg/ml) 8,Enterococcus faecium [1],1
same,MIC distribution (µg/ml) 16,Enterococcus faecium [1],1
same,MIC distribution (µg/ml) ≤0.015,Enterococcus faecium [1],0
same,MIC distribution (µg/ml) ≥32,Enterococcus faecium [1],3
same,MIC50,"Enterococcus faecium [1]; Enterococcus faecium, n = 14 isolates, read-out: MIC50",2 µg/mL
same,MIC90,"Enterococcus faecium [1]; Enterococcus faecium, n = 14 isolates, read-out: MIC90",≥ 32 µg/mL
same,% Susceptible,Campylobacter jejuni,31.86%
same,MIC50,Campylobacter jejuni,32 µg/mL
same,MIC90,Campylobacter jejuni,64 µg/mL
same,MIC Range,Campylobacter jejuni,0.03 to 128 µg/mL
same,% Susceptible,Shigella spp.,100%
same,MIC50,Shigella spp.,≤ 0.015 µg/mL
same,MIC90,Shigella spp.,0.03 µg/mL
same,MIC Range,Shigella spp.,≤0.015 to 0.03 µg/mL
same,MIC,Yersinia enterocolitica; [6],0.015 to 0.25 mg/L
same,MIC,Yersinia enterocolitica; read-out: MIC (mg/L) 50%,0.03 mg/L
same,MIC,Yersinia enterocolitica; read-out: MIC (mg/L) 90%,0.03 mg/L
"C[C@H]1COc2c(N3CCN(C)CC3)c(F)cc3c(=O)c(C(=O)O)cn1c23 [Levofloxacin, levofloxacin]",MIC50,Enterococcus faecium [2]; Enterococcus faecium (n=39),32 µg/mL
same,MIC90,Enterococcus faecium [2]; Enterococcus faecium (n=39),128 µg/mL
same,MIC,Enterococcus faecium [2]; [7],64 µg/mL
same,MIC,Enterococcus faecium [2]; [8],2 µg/mL
same,MIC,Enterococcus faecium [2]; [9],32 µg/mL
same,MIC,Enterococcus faecium [2]; [10],32 µg/mL
same,MIC,Enterococcus faecium [2]; [11],4 µg/mL
same,MIC,Enterococcus faecium [2]; [12],32 µg/mL
same,MIC,Enterococcus faecium [2]; [13],32 µg/mL
same,% Susceptible,Campylobacter jejuni,31.86%
same,MIC50,Campylobacter jejuni,8 µg/mL
same,MIC90,Campylobacter jejuni,32 µg/mL
same,MIC Range,Campylobacter jejuni,0.06 to 128 µg/mL
same,% Susceptible,Shigella spp.,100%
same,MIC50,Shigella spp.,0.03 µg/mL
same,MIC90,Shigella spp.,0.03 µg/mL
same,MIC,Yersinia enterocolitica; [6],0.03 to 0.5 mg/L
same,MIC,Yersinia enterocolitica; read-out: MIC (mg/L) 50%,0.06 mg/L
same,MIC,Yersinia enterocolitica; read-out: MIC (mg/L) 90%,0.06 mg/L
same,MIC,Moraxella catarrhalis [3]; Moraxella catarrhalis (n = 50),0.00375 to 0.03 µg/mL
same,MIC50,Moraxella catarrhalis [3]; Moraxella catarrhalis (n = 50),0.015 µg/mL
same,MIC90,Moraxella catarrhalis [3]; Moraxella catarrhalis (n = 50),0.03 µg/mL
same,MIC,Moraxella catarrhalis [3]; β-lactamase negative (n = 13),0.00375 to 0.03 µg/mL
same,MIC50,Moraxella catarrhalis [3]; β-lactamase negative (n = 13),0.03 µg/mL
same,MIC90,Moraxella catarrhalis [3]; β-lactamase negative (n = 13),0.03 µg/mL
same,MIC,Moraxella catarrhalis [3]; β-lactamase positive (n = 37),0.00375 to 0.03 µg/mL
same,MIC50,Moraxella catarrhalis [3]; β-lactamase positive (n = 37),0.015 µg/mL
same,MIC90,Moraxella catarrhalis [3]; β-lactamase positive (n = 37),0.03 µg/mL
same,MIC50,Moraxella catarrhalis [4],0.063 µg/mL
same,MIC90,Moraxella catarrhalis [4],0.063 µg/mL
same,MIC Range,Moraxella catarrhalis [4],0.031 to 0.063 µg/mL
same,MIC50,Citrobacter freundii; Citrobacter freundii,0.125 µg/mL
same,MIC90,Citrobacter freundii; Citrobacter freundii (n=39),1 µg/mL
same,MIC Range,Citrobacter freundii; Citrobacter freundii (n=39),0.016 to 1 µg/mL
same,MIC90,Morganella morganii; Morganella morganii,0.125 µg/mL
same,MIC Range,Morganella morganii; Morganella morganii (n=40),0.016 to 8 µg/mL
same,MIC50,Morganella morganii; [14],0.032 µg/mL
same,MIC50,Enterobacter cloacae,0.032 µg/mL
same,MIC90,Enterobacter cloacae,0.5 µg/mL
same,MIC Range,Enterobacter cloacae,0.016 to 1 µg/mL
same,MIC Range,Enterococcus faecalis; [15],2 to 32 µg/mL
same,MIC Range,Enterococcus faecalis; [16],1 to 2 µg/mL
same,MIC50,Enterococcus faecalis; [15],16 µg/mL
same,MIC90,Enterococcus faecalis; [15],32 µg/mL
same,MIC50,Enterococcus faecalis; [16],1 µg/mL
same,MIC90,Enterococcus faecalis; [16],2 µg/mL
same,MIC Range,Moraxella catarrhalis [5],≤0.004 to 0.03 µg/mL
same,MIC90,Moraxella catarrhalis [5]; read-out: MIC90,0.03 µg/mL
"C[C@@H]1CN(c2c(F)c(N)c3c(=O)c(C(=O)O)cn(C4CC4)c3c2F)C[C@H](C)N1 [Sparfloxacin, sparfloxacin]",MIC50,Enterococcus faecium [2]; Enterococcus faecium (n=39),32 µg/mL
same,MIC90,Enterococcus faecium [2]; Enterococcus faecium (n=39),64 µg/mL
same,MIC Range,Enterococcus faecium [2]; Enterococcus faecium (n=39),0.5 to 128 µg/mL
same,MIC,Enterococcus faecium [2]; [7],32 µg/mL
same,MIC,Enterococcus faecium [2]; [8],0.5 µg/mL
same,MIC,Enterococcus faecium [2]; [9],64 µg/mL
same,MIC,Enterococcus faecium [2]; [10],64 µg/mL
same,MIC,Enterococcus faecium [2]; [11],2 µg/mL
same,MIC,Enterococcus faecium [2]; [12],64 µg/mL
same,MIC,Enterococcus faecium [2]; [13],32 µg/mL
same,MIC,Moraxella catarrhalis [3]; Moraxella catarrhalis (n = 50),0.00375 to 0.06 µg/mL
same,MIC50,Moraxella catarrhalis [3]; Moraxella catarrhalis (n = 50),0.015 µg/mL
same,MIC90,Moraxella catarrhalis [3]; Moraxella catarrhalis (n = 50),0.03 µg/mL
same,MIC,Moraxella catarrhalis [3]; β-lactamase negative (n = 13),0.00375 to 0.06 µg/mL
same,MIC50,Moraxella catarrhalis [3]; β-lactamase negative (n = 13),0.0075 µg/mL
same,MIC90,Moraxella catarrhalis [3]; β-lactamase negative (n = 13),0.06 µg/mL
same,MIC,Moraxella catarrhalis [3]; β-lactamase positive (n = 37),0.00375 to 0.06 µg/mL
same,MIC50,Moraxella catarrhalis [3]; β-lactamase positive (n = 37),0.015 µg/mL
same,MIC90,Moraxella catarrhalis [3]; β-lactamase positive (n = 37),0.03 µg/mL
same,MIC50,Moraxella catarrhalis [4],0.016 µg/mL
same,MIC90,Moraxella catarrhalis [4],0.031 µg/mL
same,MIC Range,Moraxella catarrhalis [4],0.016 to 0.031 µg/mL
same,MIC90,Citrobacter freundii; Citrobacter freundii (n=39),2 µg/mL
same,MIC Range,Citrobacter freundii; Citrobacter freundii (n=39),0.016 to 4 µg/mL
same,MIC50,"Citrobacter freundii; Citrobacter freundii (n=39), read-out: MIC50",0.25 µg/mL
same,MIC50,Morganella morganii; Morganella morganii,0.125 µg/mL
same,MIC Range,Morganella morganii; Morganella morganii (n=40),0.063 to 16 µg/mL
same,MIC90,Morganella morganii; [17],0.5 µg/mL
same,MIC50,Enterobacter cloacae,0.032 µg/mL
same,MIC90,Enterobacter cloacae,1 µg/mL
same,MIC Range,Enterobacter cloacae,≤0.008 to 2 µg/mL
same,MIC Range,Enterococcus faecalis; [15],0.5 to 64 µg/mL
same,MIC Range,Enterococcus faecalis; [16],0.5 to 1 µg/mL
same,MIC50,Enterococcus faecalis; [15],16 µg/mL
same,MIC90,Enterococcus faecalis; [15],64 µg/mL
same,MIC50,Enterococcus faecalis; [16],0.5 µg/mL
same,MIC90,Enterococcus faecalis; [16],1 µg/mL
"NC1CCN(c2nc3c(cc2F)c(=O)c(C(=O)O)cn3-c2ccc(F)cc2F)C1 (stereo not shown) [Tosufloxacin, tosufloxacin]",MIC50,Enterococcus faecium [2]; Enterococcus faecium (n=39),> 16 µg/mL
same,MIC90,Enterococcus faecium [2]; Enterococcus faecium (n=39),> 16 µg/mL
same,MIC,Enterococcus faecium [2]; [7],> 16 µg/mL
same,MIC,Enterococcus faecium [2]; [8],2 µg/mL
same,MIC,Enterococcus faecium [2]; [9],> 16 µg/mL
same,MIC,Enterococcus faecium [2]; [10],> 16 µg/mL
same,MIC,Enterococcus faecium [2]; [11],4 µg/mL
same,MIC,Enterococcus faecium [2]; [12],> 16 µg/mL
same,MIC,Enterococcus faecium [2]; [13],> 16 µg/mL
same,MIC50,Citrobacter freundii; Citrobacter freundii,0.125 µg/mL
same,MIC90,Citrobacter freundii; Citrobacter freundii (n=39),2 µg/mL
same,MIC Range,Citrobacter freundii; Citrobacter freundii (n=39),0.016 to 2 µg/mL
same,MIC Range,Morganella morganii; Morganella morganii (n=40),0.032 to 16 µg/mL
same,MIC50,Morganella morganii; [14],0.063 µg/mL
same,MIC90,Morganella morganii; [17],0.25 µg/mL
same,MIC50,Enterobacter cloacae,0.032 µg/mL
same,MIC90,Enterobacter cloacae,1 µg/mL
same,MIC Range,Enterobacter cloacae,≤0.008 to 2 µg/mL
same,MIC Range,Enterococcus faecalis; [16],0.5 - 0.5 µg/ml
same,MIC50,Enterococcus faecalis; [15],32 µg/mL
same,MIC90,Enterococcus faecalis; [15],32 µg/mL
same,MIC50,Enterococcus faecalis; [16],0.5 µg/mL
same,MIC90,Enterococcus faecalis; [16],0.5 µg/mL
